The values that follow come from paper PMC2838930 (Pediatric blood & cancer, 2010).

For data set [1] the following is noted: adults with leukemia, with mitoxantrone, etoposide, cytarabine; cited from earlier work.
Data set [2] is described as follows: Valspodar blood concentrations by radioimmunoassay. The class given is in vivo, pediatric patients. The settings on record: at some point during the infusion.
Assay in data set [3]: not given
This is another data set of the same source.

Where [4] appears, read: during valspodar infusion, resolved after completion, all dose levels.

SMILES strings stand for the structures.

Regarding `O=C1c2c(O)ccc(O)c2C(=O)c2c(NCCNCCO)ccc(NCCNCCO)c21` [mitoxantrone], where the note is “in vivo”, the “CL0 (baseline clearance)” value is listed as 16.4 L/h and the “Q (inter-compartmental clearance)” value is 8.13 L/h.

For the compound `COc1cc([C@@H]2c3cc4c(cc3[C@@H](O[C@@H]3O[C@@H]5CO[C@@H](C)O[C@H]5[C@H](O)[C@H]3O)[C@H]3COC(=O)[C@H]23)OCO4)cc(OC)c1O` [etoposide], the “decrease of clearance when combined with valspodar” value (day 4 with valspodar versus day 1 pre-valspodar) was 60%. Further, where the note is “in vivo”, the “CL0 (baseline clearance)” value is listed as 1.52 L/h, the “Q (inter-compartmental clearance)” value is 2.38 L/h, the “V1 (volume of the central compartment)” value amounted to 3.58 L and the “V2 (volume in the peripheral compartment)” value is given as 3.82 L.

In the case of `C/C=C/C[C@@H](C)C(=O)[C@H]1C(=O)N[C@@H](C(C)C)C(=O)N(C)CC(=O)N(C)[C@@H](CC(C)C)C(=O)N[C@@H](C(C)C)C(=O)N(C)[C@@H](CC(C)C)C(=O)N[C@@H](C)C(=O)N[C@H](C)C(=O)N(C)[C@@H](CC(C)C)C(=O)N(C)[C@@H](CC(C)C)C(=O)N(C)[C@@H](C(C)C)C(=O)N1C` [valspodar, Valspodar], in data set [1], the “maximum tolerated dose (MTD) in adults” value is given as 10 mg/kg/day. The “valspodar concentration achieved in all patients” value in data set [2] is given as 1,000 ng/mL. The “patients with cerebellar toxicity (ataxia or dizziness)” value in data set [3] (all dose levels, 21 evaluable, one grade 3, two grade 2, two grade 1) is given as “five”. Also, in data set [3] (all dose levels, evaluable for toxicity), the “patients with transient hyperbilirubinemia” value is 16 of 21. Besides, in data set [3] (setting [4]), the “transient hyperbilirubinemia, median maximum” value came to 2 mg/dL and the “transient hyperbilirubinemia, range of maximum” value fell in the range of 0.8 to 6.6 mg/dL. Moreover, the “patients with valspodar infusion-related transaminase elevations” value in data set [3] (one grade 1, two grade 2, one grade 3, self-resolved) was “Four”.
